Entries after “also recorded” stand apart in the source; their conditions may differ. Bridge positions count the residues as written; N and C are the ends. Ends that are not written are not given here. I, II: the chains in the order shown.
Tests used:
[1] = Solubility of the synthetic peptides; format: physicochemical; details: 10% acetonitrile in water was used to dissolve
From the text: It was synthesized separately. For 324822, protected linear peptide was cleaved from resin and cyclized in DMF following the above procedure. After removing the protecting groups, the peptide was isolated by RP-HPLC purification. […] 10% acetonitrile in water was used to dissolve the peptides.

[2] = test system: B16F10 mouse melanoma cells; assay: CIF in vitro bioassay: contact inhibitory response of B16F10 cells to test samples; format: cell-based; details: for CIF activity of synthesized monomer and dimer: monomer and dimer separated by RP-HPLC, each separately bioassayed; for contact inhibition activity of cyclic peptide dimer isomers: peptides A-C unprotected, D-F with one Acm-protected Cys per ring
From the text: Contact Inhibitory Factor is a Structurally Novel Endogenous Cyclic Decapeptide Dimer. Determining the Structure of the CIF Molecule—Overall Approach. Identifying the molecule responsible for restoring contact inhibition of growth to melanoma cells first required production of the CIF positive culture medium from the serum free AM cell line (SFAMCM), followed by column chromatography, electrophoresis and mass spectroscopy of this culture medium. Samples obtained after each procedure were evaluated for CIF activity with an in vitro bioassay (Bioassay described herein). Identification of CIF structure evolved in three stages: (1) the CIF active conditioned medium from the AM cells (SFAMCM) contained a single decapeptide; (2) the decapeptide is head-to-tail cyclic; (3) the complete bioactive CIF molecule is a dimer composed of identical disulfide linked cyclic decapeptides. An in vitro bioassay used to monitor and guide purification involved the contact inhibitory response of B16F10 mouse melanoma cells to test samples. The latter included (1) CIF-containing medium from both the AM and revertant FF cell lines; (2) all fractions derived from the AM medium during purification; (3) the synthetic CIF peptide. Results were evaluated independently by two investigators. Samples were graded from 0 to 4, where 0 indicated no activity and 4 indicated maximum activity. Only samples graded 3 or 4 by both investigators were selected for purification.
Bioassay. Preparation of Samples. Conditioned Culture Medium (SFFFCM) and (SFAMCM). The positive control was the CIF positive conditioned culture medium from the FF cell line, SFFFCM. The negative control was DMEM 10% FBS. 3.6 ml of the sample was pipetted into a sterile 15 ml tube and heat activated at 80° C.×10 mins (minutes). After cooling to room temperature 0.4 ml FBS was added to make the FBS concentration 10%. For different volumes of conditioned culture medium the appropriate volume of FBS was added to make the final FBS concentration 10%. Both SFFFCM and SFAMCM were lyophilized and stored in desiccator jars under vacuum at 3° C.
Lyophilized Samples. To prepare the SFFFCM and the SFAMCM for the bioassay they were reconstituted with DMEM, heat activated at 80° C.×10 mins and cooled to room temperature. Sufficient volume of FBS was added to make the final FBS concentration 10%. The final volume of the sample was at least 2 ml to ensure that there was enough material for refeeding the bioassay plates.
Dilution of Samples. The samples were tested at 1:1 (undiluted), 1:2 and 1:4. The dilutions were made with DMEM 10% FBS. Higher dilutions may be used as needed. Each well contained 0.2 ml of sample, including the positive and negative controls. Each sample was done in duplicate. The wells were refed with fresh sample after 48 hrs.
Setting up the Bioassay. Using a 96 well flat bottom plate, 0.2 ml sterile water was pipetted into all outside wells. 0.2 ml 10% DMEM containing 20,000 B16F10 cells were pipetted into each well for the bioassay. Each sample was done in duplicate, including positive and negative controls. […]. The plate was placed in a 37° C., 5% CO2 incubator for approximately 4 hours to allow for cells to attach and spread. The time for attachment may vary for other cell lines. After the cells had attached and spread, the DMEM was removed and replaced with 0.2 ml of sample, positive and negative controls. The wells were observed daily and scored for CIF activity. The wells were refed after 48 hours or as needed, 0.2 ml for weekdays, 0.3 ml for weekends.
Scoring for CIF Activity. The samples were scored for CIF activity as follows:
4+=All cells are contact inhibited, flattened with an elongated fibroblast-like morphology. 3+=Not all cells are contact inhibited, elongated or fibroblast-like. There are a few scattered clusters of dividing cells. 2+=Fewer contact Inhibited cells and more clusters of dividing cells. […]

c (Gly-Met-Met-Cys-Val-Thr-His-Cys-Asn-Gly (SEQ ID NO:1)) w/Cys-Cys bridge (cyclo(GMMCVTHCNG); disulfide 4-8 (inferred)) [compound 324822]
solubility in 100% aqueous solution [1]: not soluble

dimer: synthesized CIF dimer of two identical disulfide linked head-to-tail cyclic decapeptides (SEQ ID NO:1), peak at 2068 Da (cyclo(GMMCVTHCNG); also: disulfide-linked dimer of two identical cyclic peptides, Cys not given here)
CIF activity of synthesized monomer and dimer [2]: strongly positive
CIF activity of synthesized monomer and dimer ([2]; listed as synthetic dimer): CIF positive

monomer: synthetic head-to-tail cyclic decapeptide Gly-Met-Met-Cys-Val-Thr-His-Cys-Asn-Gly (SEQ ID NO:1), peak at 1034 Da (GMMCVTHCNG; head-to-tail cyclized)
CIF activity of synthesized monomer and dimer [2]: CIF negative

peptide A: two head-to-tail cyclized SEQ ID NO:1 peptides; Cys at position 8 disulfide bonded to Cys at position 8 of the second (chain 1 GMMCVTHCNG; chain 2 GMMCVTHCNG; disulfide I:8-II:8; cysteine pairing not given here; also: head-to-tail to a chain's N/C-terminus)
contact inhibition activity of cyclic peptide dimer isomers [2]: suitable contact inhibitors

peptide B: two head-to-tail cyclized SEQ ID NO:1 peptides; Cys at position 4 disulfide bonded to Cys at position 4 of the second (chain 1 GMMCVTHCNG; chain 2 GMMCVTHCNG; disulfide I:4-II:4; cysteine pairing not given here; also: head-to-tail to a chain's N/C-terminus)
contact inhibition activity of cyclic peptide dimer isomers [2]: suitable contact inhibitors

peptide C: two head-to-tail cyclized SEQ ID NO:1 peptides; Cys at position 8 disulfide bonded to Cys at position 4 of the second (chain 1 GMMCVTHCNG; chain 2 GMMCVTHCNG; disulfide I:8-II:4; cysteine pairing not given here; also: head-to-tail to a chain's N/C-terminus)
contact inhibition activity of cyclic peptide dimer isomers [2]: suitable contact inhibitors

peptide D: SEQ ID NO:1 head to tail cyclized, attached via a disulfide bond, one Cys on each sequence acetamidomethyl (Acm) protected (chain 1 GMMCVTHCNG; chain 2 GMMCVTHCNG; disulfide (positions not given here); also: one Cys per chain Acm-protected, which not given here, head-to-tail to a chain's N/C-terminus)
contact inhibition activity of cyclic peptide dimer isomers [2]: did not have activity; also recorded: not effective contact inhibitors

peptide E: SEQ ID NO:1 head to tail cyclized, attached via a disulfide bond, one Cys on each sequence acetamidomethyl (Acm) protected (chain 1 GMMCVTHCNG; chain 2 GMMCVTHCNG; disulfide (positions not given here); also: one Cys per chain Acm-protected, which not given here, head-to-tail to a chain's N/C-terminus)
contact inhibition activity of cyclic peptide dimer isomers [2]: did not have activity; also recorded: not effective contact inhibitors

peptide F: SEQ ID NO:1 head to tail cyclized, attached via a disulfide bond, one Cys on each sequence acetamidomethyl (Acm) protected (chain 1 GMMCVTHCNG; chain 2 GMMCVTHCNG; disulfide (positions not given here); also: one Cys per chain Acm-protected, position not given here, head-to-tail to a chain's N/C-terminus, head-to-tail to a chain's N/C-terminus)
contact inhibition activity of cyclic peptide dimer isomers [2]: did not have activity; also recorded: not effective contact inhibitors
